Where two headings read alike, the source gives them in different places.
Tests used:
[1] = tested on: MDA-MB-231 human breast adenocarcinoma cell line; test: MTT cell viability assay, MDA-MB-231; format: cell-based; conditions: 0.01 to 100 μM, read-out: IC50 (μM) ± S.D MDA-MB-231
Experimental: (§1) The MDA-MB-231 human breast adenocarcinoma cell line (ATCC HTB-26), A549 human lung carcinoma cell line (ATCC CCL-185), TOV-21G human ovarian adenocarcinoma cell line (ATCC CRL-11730), and WI-26VA4 human lung fibroblast cell line (ATCC CCL-95.1) were cultured in RPMI-1640 medium supplemented with 10% fetal bovine serum (FBS) and gentamicin (100 μg/mL). Cells were maintained at 37 °C in a humidified atmosphere containing 5% CO2.
(§2) Cell viability was assessed using the MTT assay (3-[4,5-dimethylthiazol-2-yl]-2,5-diphenyl-tetrazolium bromide). Briefly, 100 μL of complete medium containing 1 × 10^4 cells was added to each well of a 96-well tissue culture plate. Cells were incubated at 37 °C in a humidified atmosphere with 5% CO2 for 24 h prior to treatment. Following medium removal, 100 μL of fresh medium containing the test compounds at concentrations ranging from 0.01 to 100 μM was added to each well, and cells were incubated for 48 h under the same conditions. All compounds were presolubilized in dimethyl sulfoxide (DMSO), and the final DMSO concentration in all treatments was maintained at ≤ 0.2% to avoid interference with cell viability.
(§3) After treatment, the medium was replaced with 100 μL of MTT solution (0.5 mg/mL) per well, followed by a 3 h incubation. Formazan crystals were dissolved by adding 100 μL of DMSO to each well, and absorbance was measured at 550 nm using a microplate reader (SpectraMax M5e, Molecular Devices, Sunnyvale, CA, USA). The percentage of growth inhibition was calculated as [1-(Abs of treated/Abs of control)]×100. All experiments were conducted in triplicate, and results are expressed as mean IC50 values, which were determined using OriginPro 8.0 software (OriginLab Corporation, Northampton, MA, USA).

[2] = tested on: A549 human lung carcinoma cell line; test: MTT cell viability assay, A549; format: cell-based; conditions: 0.01 to 100 μM, read-out: IC50 (μM) ± S.D A549
Experimental: as §1, §2, §3

[3] = tested on: TOV-21G human ovarian adenocarcinoma cell line; test: MTT cell viability assay, TOV-21G; format: cell-based; conditions: 48 h, 0.01 to 100 μM, read-out: IC50 (μM) ± S.D TOV-21G
Experimental: as §1, §2, §3

[4] = tested on: WI-26VA4 human lung fibroblast cell line; test: MTT cell viability assay, WI-26VA4; format: cell-based; conditions: 0.01 to 100 μM, read-out: IC50 (μM) ± S.D WI-26VA4
Experimental: as §1, §2, §3

[5] = Mass loss (gravimetric) corrosion inhibition test; conditions: 2 mmol L–1 inhibitor, 5% (v/v) DMSO in HCl 1 mol L–1, 4 h immersion, relative to solution without inhibitor
Experimental: SAE 1020 steel plates, with a composition of C (0.18–0.23%), Mn (0.3–0.6%), P (0.03%), and S (0.05%), and dimensions of 2.5 × 2.5 × 0.13 cm, were polished sequentially using emery papers of increasing grit sizes (150, 220, 320, 400 and 600). After polishing, the plates were thoroughly rinsed with deionized (Milli-Q) water.
A control solution was prepared by dissolving 5% (v/v) dimethyl sulfoxide in HCl 1 mol L^–1. Inhibitor-containing solutions were prepared by adding 2 mmol L^–1 of the inhibitor to 5% (v/v) dimethyl sulfoxide in HCl 1 mol L^–1 using deionized (Milli-Q) water. SAE 1020 steel plates were immersed in these solutions for a duration of 4 h.
The gravimetric method was employed to evaluate corrosion resistance by weighing the steel plates before and after immersion in the aqueous HCl solution. The mass loss (w) was calculated as the difference between the average initial mass (m i) and final mass (m f) of each plate (eq ). This information was subsequently used to determine the inhibition efficiency (IE) according to eq , where w 0 and w represent the mass losses in the absence and presence of the inhibitor, respectively. All measurements were performed in triplicate to ensure accuracy and reliability, and the reported values correspond to the average of these three determinations. , 5 w=[…] 6 IE(%)=(w^0−w)/w^0.100

Molecule	IC50 ([1]; 48 h) [µM]	IC50 ([2]; 48 h) [µM]	IC50 [3] [µM]	IC50 ([1]; Homo sapiens, MDA-MB-231, 48 h) [µM]	IC50 ([3]; Homo sapiens, TOV21G) [µM]	IC50 ([2]; Homo sapiens, A549, 48 h) [µM]	IC50 ([4]; 48 h) [µM]	IE (%) corrosion inhibition efficiency by mass loss [5] [%]	IC50 ([4]; Homo sapiens, WI26VA4, 48 h) [µM]
2-(nitromethylene)-1,3-diazepine [compound 10]	> 100	> 100	> 100	–	–	–	> 100	91 ± 0.7	–
COC(=O)C(C#N)=C1NCCCCN1 [compound 12, Methyl 2-cyano-2-(1,3-diazepan-2-ylidene)-acetate]	–	–	–	> 100	> 100	> 100	–	92 ± 0.6	> 100
CCOC(=O)C(C(=O)OCC)=C1NCCCCN1 [compound 13, Diethyl 2-(1,3-diazepan-2-ylidene)-malonate]	–	–	–	> 100	> 100	> 100	–	19 ± 5.4	> 100
N#CC(C#N)=C1NCCCCN1 [compound 11, 2-(1,3-Diazepan-2-ylidene)-malononitrile]	–	–	–	> 100	> 100	> 100	–	88 ± 0.9	> 100

Now from value to molecule, other results behind:

IC50 ([1]; 48 h) [µM]	IC50 ([2]; 48 h) [µM]	IC50 [3] [µM]	IC50 ([1]; Homo sapiens, MDA-MB-231, 48 h) [µM]	IC50 ([3]; Homo sapiens, TOV21G) [µM]	IC50 ([2]; Homo sapiens, A549, 48 h) [µM]	Molecule	IC50 ([4]; 48 h) [µM]	IE (%) corrosion inhibition efficiency by mass loss [5] [%]	IC50 ([4]; Homo sapiens, WI26VA4, 48 h) [µM]
–	–	–	> 100	> 100	–	N#CC(C(=O)c1ccccc1)=C1NCCCCN1 [compound 14, 2-(1,3-Diazepan-2-ylidene)-3-oxo-3-phenylpropanenitrile]	–	94 ± 2.5	> 100
–	–	–	2.6 ± 0.8	8.3 ± 4	0.67 ± 0.4	COc1cccc2c1C(=O)c1c(O)c3c(c(O)c1C2=O)C[C@@](O)(C(=O)CO)C[C@@H]3O[C@H]1C[C@H](N)[C@H](O)[C@H](C)O1 [doxorubicin, reference compound]	–	–	7 ± 2
